In patent publication US20200392158A1, “INHIBITORS OF LEUCINE RICH REPEAT KINASE 2” (GLAXOSMITHKLINE INTELLECTUAL PROPERTY DEVELOPMENT LIMITED, priority 2017, published 2020):

How the values were obtained:
[1] = biological target: T1, full length G2019 human LRRK2 (Homo sapiens, UniProt Q5S007, R50H); test: Full length G2019 human LRRK2 inhibition mass spectrometry assay; format: biochemical; conditions: LRRKtide to phospho-LRRKtide conversion, RapidFire MS, 2 mM ATP
T1 construct: made in house; host or cells: HEK293 6E cells transduced with BacMam virus (virus generated in Sf9 cells)
T1 sequence (Q5S007 with tags, fused parts or gaps R50H): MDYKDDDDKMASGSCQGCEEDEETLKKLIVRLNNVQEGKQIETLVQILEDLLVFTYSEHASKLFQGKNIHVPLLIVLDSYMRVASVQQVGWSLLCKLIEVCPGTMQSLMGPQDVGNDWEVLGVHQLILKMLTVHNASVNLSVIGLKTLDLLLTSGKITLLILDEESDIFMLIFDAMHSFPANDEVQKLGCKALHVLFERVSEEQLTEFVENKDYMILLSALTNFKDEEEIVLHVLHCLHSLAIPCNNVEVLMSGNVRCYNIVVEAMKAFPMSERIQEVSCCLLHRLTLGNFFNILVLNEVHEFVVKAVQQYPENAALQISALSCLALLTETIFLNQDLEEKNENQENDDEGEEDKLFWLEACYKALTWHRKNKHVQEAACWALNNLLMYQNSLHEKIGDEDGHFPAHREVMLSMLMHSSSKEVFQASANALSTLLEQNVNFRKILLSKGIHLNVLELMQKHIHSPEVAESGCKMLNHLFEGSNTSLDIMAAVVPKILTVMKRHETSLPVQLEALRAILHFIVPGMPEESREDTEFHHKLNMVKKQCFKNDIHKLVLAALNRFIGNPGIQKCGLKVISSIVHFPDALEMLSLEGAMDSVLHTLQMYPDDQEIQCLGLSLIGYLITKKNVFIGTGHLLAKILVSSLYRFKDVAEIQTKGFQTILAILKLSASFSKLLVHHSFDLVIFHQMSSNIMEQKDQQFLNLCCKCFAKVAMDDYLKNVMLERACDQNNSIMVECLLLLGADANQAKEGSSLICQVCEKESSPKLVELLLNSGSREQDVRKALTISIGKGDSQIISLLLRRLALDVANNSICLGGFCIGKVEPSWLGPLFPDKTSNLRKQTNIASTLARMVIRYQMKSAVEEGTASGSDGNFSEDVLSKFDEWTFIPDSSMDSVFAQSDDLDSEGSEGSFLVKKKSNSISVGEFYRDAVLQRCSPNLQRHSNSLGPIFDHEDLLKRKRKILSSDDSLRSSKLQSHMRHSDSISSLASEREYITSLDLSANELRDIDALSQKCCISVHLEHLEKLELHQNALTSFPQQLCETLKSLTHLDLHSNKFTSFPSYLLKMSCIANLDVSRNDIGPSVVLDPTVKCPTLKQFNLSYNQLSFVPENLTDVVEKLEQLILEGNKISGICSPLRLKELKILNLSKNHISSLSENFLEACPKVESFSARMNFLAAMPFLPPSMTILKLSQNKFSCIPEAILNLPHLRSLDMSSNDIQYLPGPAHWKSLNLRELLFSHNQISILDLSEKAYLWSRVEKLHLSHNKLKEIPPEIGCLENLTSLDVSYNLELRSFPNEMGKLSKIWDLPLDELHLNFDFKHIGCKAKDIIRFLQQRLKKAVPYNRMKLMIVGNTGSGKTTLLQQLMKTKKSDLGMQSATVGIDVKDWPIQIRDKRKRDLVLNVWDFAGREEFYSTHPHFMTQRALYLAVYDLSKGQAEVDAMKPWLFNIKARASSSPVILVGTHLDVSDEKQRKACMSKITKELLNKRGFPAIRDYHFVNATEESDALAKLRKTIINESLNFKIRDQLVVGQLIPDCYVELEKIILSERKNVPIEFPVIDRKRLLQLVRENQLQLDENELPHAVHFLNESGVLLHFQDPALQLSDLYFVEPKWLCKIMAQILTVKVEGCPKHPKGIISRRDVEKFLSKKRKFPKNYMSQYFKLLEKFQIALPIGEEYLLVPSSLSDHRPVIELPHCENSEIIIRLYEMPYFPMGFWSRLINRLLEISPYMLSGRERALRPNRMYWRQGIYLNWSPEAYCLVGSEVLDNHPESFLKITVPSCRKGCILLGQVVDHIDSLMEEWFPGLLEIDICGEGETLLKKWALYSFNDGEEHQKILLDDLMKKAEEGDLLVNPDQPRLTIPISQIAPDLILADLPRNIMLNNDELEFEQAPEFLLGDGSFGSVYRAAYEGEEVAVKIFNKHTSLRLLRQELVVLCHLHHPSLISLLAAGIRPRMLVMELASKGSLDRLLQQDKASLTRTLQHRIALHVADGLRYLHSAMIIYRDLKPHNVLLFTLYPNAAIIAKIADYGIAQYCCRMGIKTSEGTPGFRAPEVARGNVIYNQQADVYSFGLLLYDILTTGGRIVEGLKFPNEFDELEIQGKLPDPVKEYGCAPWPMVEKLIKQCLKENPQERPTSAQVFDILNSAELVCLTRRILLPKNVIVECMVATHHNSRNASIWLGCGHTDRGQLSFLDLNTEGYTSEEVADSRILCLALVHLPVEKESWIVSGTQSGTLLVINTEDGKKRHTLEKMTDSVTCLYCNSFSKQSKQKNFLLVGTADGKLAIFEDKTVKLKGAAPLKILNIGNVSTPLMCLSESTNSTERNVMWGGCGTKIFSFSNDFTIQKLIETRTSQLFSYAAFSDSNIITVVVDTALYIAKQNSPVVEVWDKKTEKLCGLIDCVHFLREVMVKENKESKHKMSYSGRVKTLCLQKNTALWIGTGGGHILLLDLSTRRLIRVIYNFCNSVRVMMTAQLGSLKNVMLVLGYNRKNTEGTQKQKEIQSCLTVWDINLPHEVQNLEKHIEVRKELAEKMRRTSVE
In short: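 Inhibition taken as reduced LRRKtide phosphorylation, quantified by RapidFire-coupled triple-quadrupole MS as product/(product+substrate) peak area. Reaction: 2 mM ATP, 25 μM peptide, ~25 nM full-length G2019 Flag-LRRK2, Hepes pH 7.2 buffer, room temperature for 1 h. 11-point 1-in-4 dilutions from 100 μM; logistic fit gives IC50, reported as pIC50.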

[2] = biological target: T2, LRRK2 kinase in SH-SY5Y cells over-expressing recombinant full length LRRK2 (Homo sapiens, UniProt Q5S007); test: Recombinant cellular LRRK2 AlphaScreen assay (LRRK2 Ser935 phosphorylation); format: cell-based; conditions: 60 min
T2 construct: A BacMam virus expressing full length recombinant LRRK2 was purchased from Invitrogen; host or cells: SH-SY5Y human neuroblastoma cells transduced with BacMam LRRK2 virus
T2 sequence (Q5S007 whole entry): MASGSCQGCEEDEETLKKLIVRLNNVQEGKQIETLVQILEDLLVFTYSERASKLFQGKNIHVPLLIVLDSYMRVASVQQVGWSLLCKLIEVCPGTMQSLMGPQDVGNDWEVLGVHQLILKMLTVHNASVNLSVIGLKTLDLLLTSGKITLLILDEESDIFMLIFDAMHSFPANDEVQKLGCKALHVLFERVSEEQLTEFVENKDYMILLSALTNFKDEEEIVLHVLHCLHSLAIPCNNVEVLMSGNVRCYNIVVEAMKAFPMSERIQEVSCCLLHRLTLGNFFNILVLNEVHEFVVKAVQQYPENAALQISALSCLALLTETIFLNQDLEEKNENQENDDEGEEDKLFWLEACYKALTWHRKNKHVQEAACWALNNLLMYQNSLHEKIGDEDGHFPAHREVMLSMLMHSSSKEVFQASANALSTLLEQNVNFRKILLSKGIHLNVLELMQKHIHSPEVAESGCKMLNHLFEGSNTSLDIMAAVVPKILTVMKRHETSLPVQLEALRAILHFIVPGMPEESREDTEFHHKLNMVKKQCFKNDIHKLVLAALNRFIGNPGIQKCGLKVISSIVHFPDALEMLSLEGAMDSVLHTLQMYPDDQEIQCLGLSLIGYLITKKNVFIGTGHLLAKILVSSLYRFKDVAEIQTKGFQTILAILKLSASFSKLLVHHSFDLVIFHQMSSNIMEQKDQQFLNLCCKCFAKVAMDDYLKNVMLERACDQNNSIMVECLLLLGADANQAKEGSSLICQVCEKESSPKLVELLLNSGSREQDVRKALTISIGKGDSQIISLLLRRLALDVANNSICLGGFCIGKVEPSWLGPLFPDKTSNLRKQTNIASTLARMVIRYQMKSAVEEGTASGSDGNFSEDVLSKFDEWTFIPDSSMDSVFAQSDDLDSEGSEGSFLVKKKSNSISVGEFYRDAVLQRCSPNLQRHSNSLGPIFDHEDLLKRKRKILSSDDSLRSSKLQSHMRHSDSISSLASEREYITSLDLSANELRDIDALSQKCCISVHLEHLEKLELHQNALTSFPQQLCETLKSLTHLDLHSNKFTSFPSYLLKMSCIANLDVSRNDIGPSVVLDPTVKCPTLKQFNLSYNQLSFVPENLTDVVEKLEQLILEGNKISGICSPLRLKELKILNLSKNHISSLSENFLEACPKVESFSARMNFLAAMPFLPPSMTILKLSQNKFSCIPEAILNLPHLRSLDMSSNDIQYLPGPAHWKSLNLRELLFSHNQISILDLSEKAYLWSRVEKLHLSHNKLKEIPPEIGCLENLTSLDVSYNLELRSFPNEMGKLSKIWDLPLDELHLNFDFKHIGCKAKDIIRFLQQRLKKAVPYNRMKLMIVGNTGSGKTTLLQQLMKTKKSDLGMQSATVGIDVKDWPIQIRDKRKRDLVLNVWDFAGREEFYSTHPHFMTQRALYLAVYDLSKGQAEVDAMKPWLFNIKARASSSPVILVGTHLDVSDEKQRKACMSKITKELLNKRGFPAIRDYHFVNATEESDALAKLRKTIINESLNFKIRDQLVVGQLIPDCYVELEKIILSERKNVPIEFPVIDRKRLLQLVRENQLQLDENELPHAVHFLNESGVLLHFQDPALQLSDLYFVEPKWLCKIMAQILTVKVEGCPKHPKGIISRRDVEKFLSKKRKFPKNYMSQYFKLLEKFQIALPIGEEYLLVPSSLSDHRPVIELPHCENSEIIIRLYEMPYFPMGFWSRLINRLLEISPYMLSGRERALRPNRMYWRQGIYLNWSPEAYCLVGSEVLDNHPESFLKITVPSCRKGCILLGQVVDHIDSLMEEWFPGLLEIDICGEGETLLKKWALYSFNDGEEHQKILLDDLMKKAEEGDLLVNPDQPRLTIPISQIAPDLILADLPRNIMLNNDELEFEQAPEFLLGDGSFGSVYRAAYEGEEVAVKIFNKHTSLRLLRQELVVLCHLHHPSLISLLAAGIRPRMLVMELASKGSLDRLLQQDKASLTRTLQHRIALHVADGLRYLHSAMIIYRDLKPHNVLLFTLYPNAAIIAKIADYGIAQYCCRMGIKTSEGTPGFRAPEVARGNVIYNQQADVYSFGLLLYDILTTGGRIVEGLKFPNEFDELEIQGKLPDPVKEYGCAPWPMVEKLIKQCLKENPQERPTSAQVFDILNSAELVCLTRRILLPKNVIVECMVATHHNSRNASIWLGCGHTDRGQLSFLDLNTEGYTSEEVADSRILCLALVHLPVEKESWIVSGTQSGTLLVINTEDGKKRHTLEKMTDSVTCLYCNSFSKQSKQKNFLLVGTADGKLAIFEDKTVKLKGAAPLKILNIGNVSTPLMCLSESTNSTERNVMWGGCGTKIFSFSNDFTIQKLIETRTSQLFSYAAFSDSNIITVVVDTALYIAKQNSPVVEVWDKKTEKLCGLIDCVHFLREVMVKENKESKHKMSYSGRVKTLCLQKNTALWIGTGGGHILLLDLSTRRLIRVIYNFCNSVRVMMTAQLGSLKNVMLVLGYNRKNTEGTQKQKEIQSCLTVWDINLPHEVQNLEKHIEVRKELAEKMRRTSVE
In short: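 Read-out is AlphaScreen of LRRK2 pSer935 over total LRRK2 in lysates of SH-SY5Y cells over-expressing full-length LRRK2 via BacMam (24 h transduction). Cells were exposed 60 min at 37 °C to an 11-point 1-in-4 dilution series starting at 10 uM; sigmoidal fit.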

| Structure (SMILES) | IC50 [1] [nM] | IC50 [2] [nM] |
| --- | --- | --- |
| Cc1c2c(nn1C1CCOCC1(F)F)OCCCNc1nc(ncc1Cl)N2 (single isomer, unassigned) [E415] | ≤ 100 | ≤ 100 |
| Cc1c2c(nn1C1CCOCC1(C)C)OCC[C@@H](C)Nc1nc(ncc1Cl)N2 (single isomer, unassigned) [E422] | ≤ 100 | ≤ 100 |
| C[C@@H]1CCOc2nn(C3CCN(C4COC4)CC3(F)F)c(Cl)c2Nc2ncc(Cl)c(n2)N1 (single isomer, unassigned) [E444] | ≤ 100 | ≤ 100 |
| Cc1c2c(nn1CCN1C[C@@H]3C[C@H]1CO3)OCCCNc1nc(ncc1Cl)N2 (stereo in doubt) [E221, 14-Chloro-4-methyl-5-{2-[(1S,4S)-2-oxa-5-azabicyclo[2.2.1]heptan-5-yl]ethyl}-8-oxa-2,5,6,12,16,17-hexaazatricyclo [11.3.1.0^3,7]heptadeca-1(16),3,6,13(17),14-pentaene] | ≤ 100 | ≤ 100 |
| Cc1c2c(nn1C1CC(N3CC4CC3CO4)C1)OCC[C@@H](C)Nc1nc(ncc1Cl)N2 (stereo in doubt) [E318, (11R)-14-Chloro-4,11-dimethyl-5-{3-[(1R,4R)-2-oxa-5-azabicyclo[2.2.1]heptan-5-yl]cyclobutyl}-8-oxa-2,5,6,12,16,17-hexaazatricyclo[11.3.1.0^3,7]heptadeca-1(16),3,6,13(17),14-pentaene] | ≤ 100 | ≤ 100 |
| Cc1c2c(nn1C1CCOCC1)OCCCNc1nc(ncc1Cl)N2 [E1, 14-Chloro-4-methyl-5-(oxan-4-yl)-8-oxa-2,5,6,12,16,17-hexaazatricyclo [11.3.1.0^3,7]heptadeca-1(16),3,6,13(17),14-pentaene] | ≤ 100 | ≤ 100 |
| Cc1c2c(nn1C1CCOCC1)OCCC(C)Nc1nc(ncc1Cl)N2 (stereo not drawn) [E5, 14-Chloro-4,11-dimethyl-5-(oxan-4-yl)-8-oxa-2,5,6,12,16,17-hexaazatricyclo [11.3.1.0^3,7]heptadeca-1(16),3,6,13(17),14-pentaene] | ≤ 100 | ≤ 100 |
| Cc1c2c(nn1C1CCOCC1)OCC[C@@H](C)Nc1nc(ncc1Cl)N2 [E6, (11R)-14-Chloro-4,11-dimethyl-5-(oxan-4-yl)-8-oxa-2,5,6,12,16,17-hexaazatricyclo [11.3.1.0^3,7]heptadeca-1(16),3,6,13(17),14-pentaene] | ≤ 100 | ≤ 100 |
| Cc1c2c(nn1C1COC1)OCCCNc1nc(ncc1Cl)N2 [E12, 14-Chloro-4-methyl-5-(oxetan-3-yl)-8-oxa-2,5,6,12,16,17-hexaazatricyclo[11.3.1.0^3,7]heptadeca-1(16),3,6,13(17),14-pentaene] | ≤ 100 | ≤ 100 |
| Clc1cnc2nc1NCCCOc1nn(C3CCOCC3)c(Cl)c1N2 [E13, 4,14-Dichloro-5-(oxan-4-yl)-8-oxa-2,5,6,12,16,17-hexaazatricyclo[11.3.1.0^3,7]heptadeca-1(16),3,6,13(17),14-pentaene] | ≤ 100 | ≤ 100 |
| Cc1c2c(nn1C1CC(N3CCOCC3)C1)OCCCNc1nc(ncc1Cl)N2 (stereo not drawn) [E45, 14-Chloro-4-methyl-5-[3-(morpholin-4-yl)cyclobutyl]-8-oxa-2,5,6,12,16,17-hexaaza tricyclo[11.3.1.0^3,7]heptadeca-1(16),3,6,13(17),14-pentaene] | ≤ 100 | ≤ 100 |
| Cc1c2c(nn1[C@H]1CCOC1)OCC[C@@H](C)Nc1nc(ncc1Cl)N2 [E46, (11R)-14-chloro-4,11-dimethyl-5-[(3S)-oxolan-3-yl]-8-oxa-2,5,6,12,16,17-hexaaza tricyclo [11.3.1.0^3,7]heptadeca-1(16),3,6,13(17),14-pentaene] | ≤ 10000 | ≤ 100 |
| Cc1c2c(nn1[C@@H]1CCOC1)OCC[C@@H](C)Nc1nc(ncc1Cl)N2 [E47, (11R)-14-chloro-4,11-dimethyl-5-[(3R)-oxolan-3-yl]-8-oxa-2,5,6,12,16,17-hexaaza tricyclo [11.3.1.0^3,7]heptadeca-1(16),3,6,13(17),14-pentaene] | ≤ 100 | ≤ 100 |
| Cc1c2c(nn1C1COC1)OCC[C@@H](C)Nc1nc(ncc1Cl)N2 [E52, (11R)-14-chloro-4,11-dimethyl-5-(oxetan-3-yl)-8-oxa-2,5,6,12,16,17-hexaazatricyclo [11.3.1.0^3,7]heptadeca-1(16),3,6,13(17),14-pentaene] | ≤ 100 | ≤ 100 |
| Cc1c2c(nn1C1CCN(C3COC3)CC1)OCC[C@@H](C)Nc1nc(ncc1Cl)N2 [E65, (11R)-14-chloro-4,11-dimethyl-5-[1-(oxetan-3-yl)piperidin-4-yl]-8-oxa-2,5,6,12,16,17-hexaazatricyclo[11.3.1.0^3,7]heptadeca-1(16),3,6,13(17),14-pentaene] | ≤ 100 | ≤ 100 |
| Cc1c2c(nn1C1COC1)OCCCNc1nc(ncc1Br)N2 [E66, 14-Bromo-4-methyl-5-(oxetan-3-yl)-8-oxa-2,5,6,12,16,17-hexaazatricyclo[11.3.1.0^3,7]heptadeca-1(16),3,6,13(17),14-pentaene] | ≤ 100 | ≤ 100 |
| Cc1c2c(nn1C1CC(N3CCOCC3)C1)OCC[C@@H](C)Nc1nc(ncc1Cl)N2 (stereo partly drawn) [E106, (11R)-14-chloro-4,11-dimethyl-5-[3-(morpholin-4-yl)cyclobutyl]-8-oxa-2,5,6,12,16,17-hexaazatricyclo[11.3.1.0^3,7]heptadeca-1(16),3,6,13(17),14-pentaene] | ≤ 100 | ≤ 100 |
| Cc1c2c(nn1C1CN(C3COC3)C1)OCC[C@@H](C)Nc1nc(ncc1Cl)N2 [E107, (11R)-14-chloro-4,11-dimethyl-5-[1-(oxetan-3-yl)azetidin-3-yl]-8-oxa-2,5,6,12,16,17-hexaazatricyclo[11.3.1.0^3,7]heptadeca-1(16),3,6,13(17),14-pentaene] | ≤ 100 | ≤ 100 |
| Cc1c2c(nn1C1CCOCC1)OCCCCNc1nc(ncc1Cl)N2 [E109, 15-Chloro-4-methyl-5-(oxan-4-yl)-8-oxa-2,5,6,13,17,18-hexaaza tricyclo[12.3.1.0^3,7]octadeca-1(17),3,6,14(18),15-pentaene] | ≤ 100 | ≤ 100 |
| Cc1c2c(nn1C1CCOCC1)OCCCOc1nc(ncc1Cl)N2 [E110, 14-Chloro-4-methyl-5-(oxan-4-yl)-8,12-dioxa-2,5,6,16,17-pentaazatricyclo[11.3.1.0^3,7]heptadeca-1(16),3,6,13(17),14-pentaene] | ≤ 100 | ≤ 100 |
| FC(F)c1c2c(nn1C1CCOCC1)OCCCNc1nc(ncc1Cl)N2 [E112, 4-Chloro-4-(difluoromethyl)-5-(oxan-4-yl)-8-oxa-2,5,6,12,16,17-hexaazatricyclo[11.3.1.0^3,7]heptadeca-1(16),3,6,13(17),14-pentaene] | ≤ 100 | ≤ 100 |
| COCCn1nc2c(c1C)Nc1ncc(Cl)c(n1)NCCCO2 [E116, 14-Chloro-5-(2-methoxyethyl)-4-methyl-8-oxa-2,5,6,12,16,17-hexaazatricyclo[11.3.1.0^3,7]heptadeca-1(16),3,6,13(17),14-pentaene] | ≤ 100 | ≤ 100 |
| Cc1c2c(nn1C1CCOCC1)OCCCOc1nc(ncc1C(F)(F)F)N2 [E117, 4-Methyl-5-(oxan-4-yl)-14-(trifluoromethyl)-8,12-dioxa-2,5,6, 16,17-pentaazatricyclo[11.3.1.0^3,7]heptadeca-1(16),3,6,13(17),14-pentaene] | ≤ 100 | ≤ 100 |
| FC(F)(F)c1cnc2nc1NCCCOc1nn(C3CCCOC3)cc1N2 (stereo not drawn) [E130, 5-(Oxan-3-yl)-14-(trifluoromethyl)-8-oxa-2,5,6,12,16,17-hexaaza tricyclo[11.3.1.0^3,7]heptadeca-1(16),3,6,13(17),14-pentaene] | ≤ 100 | ≤ 100 |
| Cc1c2c(nn1C1CCOCC1)OCCCNc1cc(ncc1Cl)N2 [E134, 14-Chloro-4-methyl-5-(oxan-4-yl)-8-oxa-2,5,6,12,16-pentaaza tricyclo[11.3.1.0^3,7]heptadeca-1(16),3,6,13(17),14-pentaene] | ≤ 100 | ≤ 100 |
| CCOC(=O)C(C)(C)n1nc2c(c1C)Nc1ncc(Cl)c(n1)NCCCO2 [E188] | ≤ 100 | ≤ 100 |
| Cc1c2c(nn1C(C)(C)C(=O)O)OCCCNc1nc(ncc1Cl)N2 [E189, 2-{14-Chloro-4-methyl-8-oxa-2,5,6,12,16,17-hexaazatricyclo [11.3.1.0^3,7]heptadeca-1(16),3,6,13(17),14-pentaen-5-yl}-2-methylpropanoic acid] | ≤ 10000 | > 10000 |
| Cc1c2c(nn1C(C)(C)C#N)OCCCNc1nc(ncc1Cl)N2 [E191, 2-{14-Chloro-4-methyl-8-oxa-2,5,6,12,16,17-hexaazatricyclo [11.3.1.0^3,7]heptadeca-1(16),3,6,13(17),14-pentaen-5-yl}-2-methylpropanenitrile] | ≤ 100 | ≤ 100 |
| Cc1c2c(nn1CC(F)(F)F)OCCCNc1nc(ncc1Cl)N2 [E266, 14-Chloro-4-methyl-5-(2,2,2-trifluoroethyl)-8-oxa-2,5,6,12,16,17-hexaazatricyclo[11.3.1.0^3,7]heptadeca-1(16),3,6,13(17),14-pentaene] | ≤ 100 | ≤ 100 |
| Cc1c2c(nn1C1CC3(COC3)C1)OCC[C@@H](C)Nc1nc(ncc1Cl)N2 [E301, (11R)-14-Chloro-4,11-dimethyl-5-{2-oxaspiro[3.3]heptan-6-yl}-8-oxa-2,5,6,12,16,17-hexaazatricyclo[11.3.1.0^3,7]heptadeca-1(17),3,6,13,15-pentaene] | ≤ 100 | ≤ 100 |
